Structures can show the parent of a compound that is named as a salt.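 Cultured in 96-well plates, cells were exposed to test compound for 48 hours across five concentrations. The concentration for 50% growth inhibition is given as GI50.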 Activity calls are given as the source filed them. Cut-off read from the data, not from the text of the source: active = GI50 up to about 1.1 µM and inactive = higher.

Test systems include 786-0; A498; ACHN; DU-145; HCC 2998; HT-29; K562; KM12; MDA-MB-231; MDA-MB-435; MDA-N; NCI-H522; NCI/ADR-RES; OVCAR-8; SF-268; SF-295; SF-539; SK-MEL-2; SNB-75; T47D.
Test in all cases: NCI-60 cell line screen, 48 h

Regarding `c1ccc2c3c(c(N4CCOCC4)nc2c1)CCCC3`, the GI50 in the assay on 786-0 was 32.8 µM (inactive); in the assay with A498 it was 24 µM (inactive); in the assay on ACHN it was 41.2 µM (inactive); with DU-145 it was 33.3 µM (inactive); in the assay with HCC 2998 it was 32.4 µM (inactive); in the assay on HT-29 it was 22.7 µM (inactive). Also, the GI50 with K562 was 49.8 µM (inactive); in the assay on KM12 it was 38.2 µM (inactive); with MDA-MB-231 it was 32.1 µM (inactive); with MDA-MB-435, 48.6 µM (inactive); in the assay with MDA-N, 50.4 µM (inactive); in the assay with NCI-H522, 29.7 µM (inactive). The GI50 in the assay with NCI/ADR-RES was 29.9 µM (inactive); in the assay on OVCAR-8 it was 57.5 µM (inactive); in the assay on SF-268, 66.5 µM (inactive); in the assay with SF-295 it was 39.6 µM (inactive); in the assay with SF-539, 20.8 µM (inactive); in the assay on SK-MEL-2, 42.8 µM (inactive). In addition, the GI50 is 15.4 µM (inactive) in the assay on SNB-75 and 16 µM (inactive) in the assay with T47D.
As to `COc1ccc2nc(C)cc(NCCCCCCCCCNc3cc(C)nc4ccc(OC)cc34)c2c1`, the GI50 in the assay with 786-0 was 1.03 µM (active); in the assay with A498, 13.7 µM (inactive); with ACHN, 8.87 µM (inactive); in the assay on DU-145 it was 6.07 µM (inactive); with HCC 2998, 1.4 µM (inactive); in the assay with HT-29 it was 0.55 µM (active). Moreover, the GI50 in the assay with K562 is 0.264 µM (active); in the assay on KM12 it was 1.26 µM (inactive); in the assay with MDA-MB-231 it was 1.27 µM (inactive); in the assay on MDA-MB-435, 1.58 µM (inactive); in the assay on MDA-N, 1.46 µM (inactive); in the assay on NCI-H522 it was 0.834 µM (active). In addition, the GI50 was 5.43 µM (inactive) in the assay with NCI/ADR-RES; 0.527 µM (active) in the assay with OVCAR-8; 1.93 µM (inactive) in the assay with SF-268; 1.11 µM (active) in the assay with SF-295; 1.27 µM (inactive) with SF-539; 3.79 µM (inactive) in the assay with SK-MEL-2. The values for the GI50 in the assay with SNB-75 and with T47D were 4.14 µM (inactive) and 1.73 µM (inactive), respectively.
Take `C=C1CC(COc2ccc3c(C)c(Cl)c(=O)oc3c2)(c2ccccc2)OC1=O` (stereo not drawn): the GI50 in the assay on 786-0 is 1.51 µM (inactive); with A498 it was 11.8 µM (inactive); with ACHN, 2.86 µM (inactive); with DU-145, 3.01 µM (inactive); in the assay on HCC 2998, 1.71 µM (inactive); with HT-29, 1.24 µM (inactive). The GI50 with K562 is 0.422 µM (active); with KM12, 2.48 µM (inactive); in the assay with MDA-MB-231 it was 3.78 µM (inactive); in the assay on MDA-MB-435 it was 2.45 µM (inactive); in the assay on MDA-N, 2.07 µM (inactive); with NCI-H522 it was 1.14 µM (inactive). Further, the GI50 with NCI/ADR-RES was 2.97 µM (inactive); in the assay with OVCAR-8, 2.06 µM (inactive); in the assay with SF-268 it was 4.46 µM (inactive); in the assay on SF-295, 7.13 µM (inactive); in the assay on SF-539, 3.38 µM (inactive); with SK-MEL-2, 1.75 µM (inactive). The GI50 in the assay with SNB-75 was 3.47 µM (inactive); with T47D, 2.04 µM (inactive).
On to `Nc1nc(Cl)cc(NCC2(CO)CC(O)C2)n1` (stereo not drawn), for which the GI50 with 786-0, with A498, with ACHN, with DU-145, with HCC 2998 and in the assay on HT-29 was > 100 µM (inactive) in each case. Moreover, the GI50 with K562, with KM12, in the assay with MDA-MB-231, in the assay on MDA-MB-435, in the assay with MDA-N and in the assay on NCI-H522 was > 100 µM (inactive) in each case. Besides, the GI50 with NCI/ADR-RES, in the assay on OVCAR-8, in the assay on SF-268, with SF-295, in the assay with SF-539 and in the assay on SK-MEL-2 was > 100 µM (inactive) in each case. For the same molecule, the GI50 with SNB-75 and in the assay with T47D was > 100 µM (inactive) throughout.
As for `[N-]=[N+]=NC1(N=[N+]=[N-])C(=O)NN=C(c2ccccc2)C1=O` (stereo not drawn), the GI50 with 786-0, in the assay with A498, with ACHN, in the assay on DU-145, in the assay with HCC 2998 and in the assay with HT-29 was > 100 µM (inactive) in each case. The GI50 in the assay with K562 was 38.9 µM (inactive); in the assay on KM12 it was > 100 µM (inactive); in the assay on MDA-MB-231, > 100 µM (inactive); in the assay with MDA-MB-435, 18.4 µM (inactive); with MDA-N it was 20.7 µM (inactive); with NCI-H522, > 100 µM (inactive). Moreover, the GI50 in the assay with NCI/ADR-RES was > 100 µM (inactive); in the assay on OVCAR-8 it was 82.2 µM (inactive); in the assay with SF-268, 13 µM (inactive); with SF-295, 61.4 µM (inactive); with SF-539 it was > 100 µM (inactive); in the assay on SNB-75, > 100 µM (inactive). Also, the GI50 with T47D is 31.1 µM (inactive).
As to `FC1(F)[Se]C2C3CCC(C3)C2C1(F)F` (stereo not drawn), the GI50 in the assay on 786-0, in the assay on A498, in the assay with ACHN, with DU-145, with HCC 2998 and in the assay with KM12 was > 100 µM (inactive) each time. The GI50 in the assay on MDA-MB-231, in the assay with MDA-MB-435, in the assay with MDA-N, in the assay with NCI-H522, in the assay with NCI/ADR-RES and in the assay with OVCAR-8 was > 100 µM (inactive) throughout. Besides, the GI50 with SF-268 was > 100 µM (inactive); with SF-295, 35.2 µM (inactive); with SF-539, > 100 µM (inactive); in the assay with SK-MEL-2, > 100 µM (inactive); with SNB-75 it was 97.3 µM (inactive); in the assay on T47D, > 100 µM (inactive).
Regarding `CCCCCCCCCCCCC(O)C1CCC(C(O)CCCCCCC(O)CCCCCCCC2=CC(C)OC2=O)O1` (stereo not drawn), the GI50 in the assay on 786-0 was 32.9 µM (inactive); in the assay on A498, 32.8 µM (inactive); in the assay with ACHN it was 2.48 µM (inactive); with DU-145, > 10 µM (inactive); in the assay on HCC 2998, 30.9 µM (inactive); with K562, 6.55 µM (inactive). Moreover, the GI50 is 32.4 µM (inactive) in the assay on KM12; 28.6 µM (inactive) in the assay on MDA-MB-231; 2.67 µM (inactive) in the assay with MDA-MB-435; 17.7 µM (inactive) in the assay on MDA-N; 16.5 µM (inactive) in the assay with NCI-H522; 1.84 µM (inactive) with NCI/ADR-RES. Moreover, the GI50 is 36.6 µM (inactive) in the assay with OVCAR-8; 6.53 µM (inactive) in the assay on SF-268; 3.86 µM (inactive) with SF-295; > 10 µM (inactive) in the assay on SF-539; 24.6 µM (inactive) in the assay with SK-MEL-2; 5.58 µM (inactive) with SNB-75. Besides, in the assay on T47D, the GI50 is 2.8 µM (inactive).
As to `CC(C)=CCNc1ncnc2c1ncn2CCC#N`, the GI50 in the assay on 786-0, in the assay on A498, in the assay on ACHN, in the assay on DU-145, with HCC 2998 and in the assay on HT-29 was > 100 µM (inactive) throughout. Besides, the GI50 with K562, in the assay on KM12, with MDA-MB-231, in the assay on MDA-MB-435, with MDA-N and in the assay on NCI-H522 was > 100 µM (inactive) throughout. Moreover, the GI50 is > 100 µM (inactive) in the assay with NCI/ADR-RES; > 100 µM (inactive) in the assay with OVCAR-8; > 100 µM (inactive) in the assay on SF-268; > 100 µM (inactive) in the assay on SF-295; > 100 µM (inactive) in the assay with SF-539; 19.8 µM (inactive) in the assay on SNB-75. Besides, the GI50 with T47D was > 100 µM (inactive).
Regarding `CCSCCCC(=O)O`, the GI50 in the assay with 786-0, in the assay with A498, in the assay on ACHN, with DU-145, with HCC 2998 and in the assay with HT-29 was > 100 µM (inactive) in each case. For the same molecule, the GI50 with K562, in the assay with KM12, in the assay on MDA-MB-231, in the assay on MDA-MB-435, in the assay on MDA-N and in the assay with NCI-H522 was > 100 µM (inactive) in each case. Besides, the GI50 in the assay on NCI/ADR-RES, in the assay on OVCAR-8, with SF-268, in the assay with SF-295, in the assay on SK-MEL-2 and in the assay on SNB-75 was > 100 µM (inactive) each time. Further, the GI50 with T47D was > 100 µM (inactive).
For `N=C(N)c1ccc(-c2ccc(-c3ccc(C(=N)N)cc3)o2)cc1` [FURAMIDINE HYDROCHLORIDE], the GI50 with 786-0 was 23.2 µM (inactive); in the assay on A498 it was 63.7 µM (inactive); with ACHN, 39.6 µM (inactive); in the assay with DU-145, 32.7 µM (inactive); in the assay with HT-29, 24.5 µM (inactive); with K562, 22.8 µM (inactive). The GI50 with KM12 is 22.5 µM (inactive); in the assay on MDA-MB-231, > 100 µM (inactive); with MDA-MB-435, 30.7 µM (inactive); in the assay on MDA-N it was 27.5 µM (inactive); in the assay with NCI-H522 it was 24.8 µM (inactive); in the assay with NCI/ADR-RES, 31.3 µM (inactive). For the same molecule, the GI50 with OVCAR-8 was 33.7 µM (inactive); with SF-268 it was 45.3 µM (inactive); with SF-295 it was 41.4 µM (inactive); in the assay with SF-539, 37.3 µM (inactive); in the assay with SK-MEL-2 it was 23.8 µM (inactive); in the assay with SNB-75, 42 µM (inactive). Further, the GI50 in the assay with T47D was 23.4 µM (inactive).
